This assay concerns the target T1, human leukocyte elastase (HLE) (Homo sapiens, UniProt P08246).
T1 sequence (P08246 30-267): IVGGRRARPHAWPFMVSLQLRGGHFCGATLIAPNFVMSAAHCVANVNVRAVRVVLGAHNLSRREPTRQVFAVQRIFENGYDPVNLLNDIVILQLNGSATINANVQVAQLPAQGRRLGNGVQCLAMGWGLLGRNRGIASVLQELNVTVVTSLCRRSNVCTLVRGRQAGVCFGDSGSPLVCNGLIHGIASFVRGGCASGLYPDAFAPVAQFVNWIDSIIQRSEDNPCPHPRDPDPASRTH
In words: Inhibition of human leukocyte elastase: rate of inactivation kon and inhibition constant Ki* (koff/kon). The class given is biochemical. Particulars: Ki* = koff/kon, calculated from measured koff and kon; not a truly reversible Ki; read-out: K*i.
Procedure: Thus, instead of measuring a Ki, a Ki* is calculated which is defined as the ratio of the koff/kon, the rate of reactivation of the enzyme to the rate of inactivation of the enzyme. The values of koff and kon are measured and Ki* is then calculated.
The rate of inactivation, kon, of enzymatic activity was determined for the compounds tested by measuring the enzyme activity of an aliquot of the respective enzyme as a function of time after addition of the test compound. […] The rate of inactivation is then equal to [formula] where [I] is the concentration of the inhibiting compound.
The reactivation constant, koff, is similarly determined, and the inhibition constant, Ki*, is then calculated as Ki * = koff /kon [formula]
`CCOc1cc(C(C)C)c2c(c1)S(=O)(=O)N(COC(=O)c1c(Cl)ccc(OCCN3CCOCC3)c1Cl)C2=O` [Example 1AX]: the Ki is 0.033 nM. Consider `COc1cc(C(C)C)c2c(c1OC)S(=O)(=O)N(COC(=O)c1c(Cl)cccc1Cl)C2=O` [Example 1BF], for which the Ki is 2 nM. As for `O=C(OCN1C(=O)c2ccccc2S1(=O)=O)c1c2ccccc2cc2ccccc12` [Example 1AM], the Ki was 2.1 nM. The result for `COc1cc(Cl)c(C(=O)OCN2C(=O)c3c(C(C)C)cccc3S2(=O)=O)c(Cl)c1` [Example 1AC] reads 0.025 nM; that for `COc1cc(C(C)C)c2c(c1OC)S(=O)(=O)N(COC(=O)c1c(Cl)ccc(S(=O)(=O)N3CCN(C)CC3)c1Cl)C2=O` [Example 1BH], 0.6 nM. The result for `COc1cc(C(C)C)c2c(c1)S(=O)(=O)N(COC(=O)c1c(C)cccc1C)C2=O` [Example 1BM] reads 0.08 nM; that for `COc1cc(C(C)C)c2c(c1)S(=O)(=O)N(COC(=O)c1c(Cl)ccc(S(=O)(=O)NCC(=O)O)c1Cl)C2=O` [Example 2D, 4-isopropyl-6-methoxy-2-saccharinylmethyl 2,6-dichloro-3-carboxymethylamino-sulfonylbenzoate], 0.008 nM. With `COc1ccc(C(=O)OCN2C(=O)c3ccccc3S2(=O)=O)c(OC)c1` [Example 1E] the figure was 18 nM; with `CC(C)c1cccc2c1C(=O)N(COC(=O)c1cccc(OCc3ccccc3)c1)S2(=O)=O` [Example 1X], 0.5 nM. Consider `COc1cc(C(C)C)c2c(c1)S(=O)(=O)N(COC(=O)c1ccccc1C(C)C)C2=O` [Example 1BS], for which the Ki is 0.036 nM. In the case of `CC(C)c1cccc2c1C(=O)N(COC(=O)c1ccc(Cl)cc1Cl)S2(=O)=O` [Example 1AO], the Ki is 1 nM.

Take `COc1cc(C(C)C)c2c(c1)S(=O)(=O)N(COC(=O)c1c(OC)cc(OCc3ccccc3)cc1OC)C2=O` [Example 1BP]: the Ki is 0.35 nM.
